In US20070087988A1, “Hematopoietic progenitor kinase 1 for modulation of an immune response” (New York University, priority 2005, published 2007):

Assays:
[1] = system: HPK1; assay: HPK1 immune complex in vitro kinase (IVK) assay, endogenous HPK1 from treated Jurkat cells; type: cell-based, human; conditions: for PGE2-induced HPK1 activity: Jurkat cells pretreated with 10 μM H-89, then PGE2; for HPK1 kinase activity (IVK) after phosphatase inhibitor: Jurkat cells, 10 min at 37° C., 100 nM calyculin A, 10 nM okadaic acid, 2 μg/ml cyclosporine A, 10 nM pervanadate
[2] = target: HA-tagged murine HPK1 point mutant S171A (UniProt P70218)
[3] = target: HA-tagged murine HPK1 point mutant R169K (UniProt P70218)
[4] = target: HA-tagged murine HPK1 point mutant R168K (UniProt P70218)

O=S(=O)(NCCNC/C=C/c1ccc(Br)cc1)c1cccc2cnccc12 [H-89]
PGE2-induced HPK1 activity [1]: blocked | PGE2-induced HPK1 activity ([1]; listed as H89): blocks PGE2-induced HPK1 activation

cAMP-dependent protein kinase A (PKA), endogenous in Jurkat T cells
HPK1 kinase activity (IVK assay) in response to PGE2 stimulation [2]: mutation of serine 171 ablated the response of HPK1 to PGE2 stimulation signals | HPK1 kinase activity (IVK assay) in response to PGE2 stimulation [3]: Arginine to lysine mutations at either residue 168 or 169 of HPK1 reduced the responsiveness to PGE2 stimulation by approximately 90% | HPK1 kinase activity (IVK assay) in response to PGE2 stimulation [4]: Arginine to lysine mutations at either residue 168 or 169 of HPK1 reduced the responsiveness to PGE2 stimulation by approximately 90%

cholera toxin
HPK1 kinase activity (IVK) after PKA activator [1]: robustly induced HPK1 kinase activity

C=C1[C@@H](O)[C@@H]2O[C@]3(CC[C@H](/C=C/[C@@H](C)[C@@H]4CC(C)=C[C@@]5(O[C@H](C[C@@](C)(O)C(=O)O)CC[C@H]5O)O4)O3)CC[C@H]2O[C@@H]1[C@@H](O)C[C@H](C)[C@H]1O[C@@]2(CCCCO2)CC[C@H]1C [okadaic acid]
HPK1 kinase activity (IVK) after phosphatase inhibitor [1]: activated HPK1 kinase activity

COC[C@@H]([C@H](O)[C@H](O)C(=O)NCC[C@H](C)c1nc(/C=C/C[C@@H]2O[C@]3(C[C@@H](O)[C@@H]2C)O[C@H]([C@H](C[C@H](O)[C@H](C)[C@H](O)[C@H](C)/C=C(C)/C(C)=C/C=C/C(C)=C\C#N)OC)[C@H](OP(=O)(O)O)C3(C)C)co1)N(C)C [calyculin A]
HPK1 kinase activity (IVK) after phosphatase inhibitor [1]: activated HPK1 kinase activity

pervanadate
HPK1 kinase activity (IVK) after phosphatase inhibitor [1]: induced a response in HPK1 catalytic activity
